pEC50, pKi: −log10 of the molar value.
Tests used:
Adenosine A2A = Adenosine A2A (Homo sapiens (Human), UniProt P29274); assay: A2A Tag-lite HTRF assay (Example C); conditions: Tag-lite Adenosine A2A labeled cells, Red antagonist fluorescent ligand 12.5 nM, one-site competitive binding; read-out: A2A_Ki
Experimental: Example C. A2A Tag-Lite® HTRF Assay
Assays were conducted in black low volume 384-well polystyrene plates (Greiner 784076-25) in a final volume of 10 μL. Test compounds were first serially diluted in DMSO and 100 nl added to the plate wells before the addition of other reaction components. The final concentration of DMSO was 1%. Tag-lite® Adenosine A2A labeled cells (CisBio C1TT1A2A) were diluted 1:5 into Tag-lite buffer (CisBio LABMED) and spun 1200 g for 5 mins. The pellet was resuspended at a volume 10.4× the initial cell suspension volume in Tag-lite buffer, and Adenosine A2A Receptor Red antagonist fluorescent ligand (CisBio L0058RED) added at 12.5 nM final concentration. 10 ul of the cell and ligand mix was added to the assay wells and incubated at room temperature for 45 minutes before reading on a PHERAstar FS plate reader (BMG Labtech) with HTRF 337/620/665 optical module. Percent binding of the fluorescent ligand was calculated; where 100 nM of A2A antagonist control ZM 241385 (Tocris 1036) displaces the ligand 100% and 1% DMSO has 0% displacement. The % binding data versus the log of the inhibitor concentration was fitted to a one-site competitive binding model (GraphPad Prism version 7.02) where the ligand constant=12.5 nM and the ligand Kd=1.85 nM.

[1] = target: human adenosine A2B receptor (Homo sapiens (Human), UniProt P29275); assay: Adenosine A2B receptor cyclic AMP GS assay (Example B); format: cell-based; conditions: HEK-293 cells expressing human A2B, agonist NECA 12 nM, cAMP accumulation (FRET); read-out: A2B_cAMP_EC50
Experimental: Example B. Adenosine A2B Receptor Cyclic AMP GS Assay
Stably transfected HEK-293 cells expressing the human adenosine A2B receptor (Perkin Elmer) were maintained in MEM culture medium with 10% FBS and 100 μg/ml Geneticin (Life Technologies). 18 to 24 hours prior to assay, geneticin was removed from culture. The cisbio cAMP-GS Dynamic kit utilizing the FRET (Fluorescence Resonance Energy Transfer) technology was used to measure cAMP accumulation in the cells. Compounds of the present disclosure at an appropriate concentration were mixed with 10000 cells/well in white 96 well half area plates (Perkin Elmer) for 30 min at RT gently shaking. Agonist, NECA (R&D Technologies) at 12 nM was added to each well for 60 min at RT gently shaking. Detection reagents, d2-labeled cAMP (acceptor) and anti-cAMP cryptate (donor) were added to each well for 60 min at RT gently shaking. Plates were read on Pherastar (BMG Labtech), fluorescence ratio 665/620 was calculated and EC50 determination was performed by fitting the curve of percent of control versus the log of the compound concentration using GraphPad Prism.

Chain of human adenosine A2B receptor (P29275 whole entry): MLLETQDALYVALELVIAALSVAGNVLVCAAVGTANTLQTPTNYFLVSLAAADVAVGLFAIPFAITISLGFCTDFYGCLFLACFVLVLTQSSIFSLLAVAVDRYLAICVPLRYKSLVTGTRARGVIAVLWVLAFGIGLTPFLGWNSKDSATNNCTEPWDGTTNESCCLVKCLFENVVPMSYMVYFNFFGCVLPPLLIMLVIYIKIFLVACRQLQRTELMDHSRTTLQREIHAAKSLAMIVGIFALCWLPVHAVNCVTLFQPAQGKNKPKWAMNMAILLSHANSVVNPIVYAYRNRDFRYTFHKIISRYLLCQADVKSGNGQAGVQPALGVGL
Chain of Adenosine A2A (P29274 whole entry): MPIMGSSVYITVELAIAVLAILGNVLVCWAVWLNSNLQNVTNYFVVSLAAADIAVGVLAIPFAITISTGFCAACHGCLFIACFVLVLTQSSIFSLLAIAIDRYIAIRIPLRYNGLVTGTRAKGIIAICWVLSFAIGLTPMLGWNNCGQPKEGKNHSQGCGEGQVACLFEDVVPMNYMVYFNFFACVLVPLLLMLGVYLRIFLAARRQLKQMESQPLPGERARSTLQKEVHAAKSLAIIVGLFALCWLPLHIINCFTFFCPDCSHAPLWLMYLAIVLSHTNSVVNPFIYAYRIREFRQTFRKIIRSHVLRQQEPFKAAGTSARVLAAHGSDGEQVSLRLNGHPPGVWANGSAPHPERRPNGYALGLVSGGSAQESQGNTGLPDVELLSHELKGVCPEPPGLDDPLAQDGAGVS

| Compound | pKi (Adenosine A2A) | pEC50 [1] |
| --- | --- | --- |
| Cc1cccnc1CNc1nc2c(-c3ccc(=O)n(C)c3)c(-c3cccc(C#N)c3F)nc(N)n2n1 [Example 23, 3-(5-amino-8-(1-methyl-6-oxo-1,6-dihydropyridin-3-yl)-2-(((3-methylpyridin-2-yl)methyl)amino)-[1,2,4]triazolo[1,5-c]pyrimidin-7-yl)-2-fluorobenzonitrile] | ≥ 8.00 | 7.00 to 8.00 |
| CCn1cc(-c2c(-c3cccc(C#N)c3F)nc(N)n3nc(NCc4ncccc4C)nc23)ccc1=O [Example 24, 3-(5-amino-8-(1-ethyl-6-oxo-1,6-dihydropyridin-3-yl)-2-(((3-methylpyridin-2-yl)methyl)amino)-[1,2,4]triazolo[1,5-c]pyrimidin-7-yl)-2-fluorobenzonitrile] | ≥ 8.00 | 7.00 to 8.00 |
| Cc1cccnc1CNc1nc2c(-c3ccc(=O)n(C)n3)c(-c3cccc(C#N)c3F)nc(N)n2n1 [Example 25, 3-(5-amino-8-(1-methyl-6-oxo-1,6-dihydropyridazin-3-yl)-2-(((3-methylpyridin-2-yl)methyl)amino)-[1,2,4]triazolo[1,5-c]pyrimidin-7-yl)-2-fluorobenzonitrile] | ≥ 8.00 | ≥ 8.00 |
| COc1cc(-c2c(-c3cccc(C#N)c3F)nc(N)n3nc(NCc4ncccc4C)nc23)cc(C)n1 [Example 26, 3-(5-amino-8-(2-methoxy-6-methylpyridin-4-yl)-2-(((3-methylpyridin-2-yl)methyl)amino)-[1,2,4]triazolo[1,5-c]pyrimidin-7-yl)-2-fluorobenzonitrile] | ≥ 8.00 | 7.00 to 8.00 |
| Cn1nc(-c2c(-c3cccc(C#N)c3)nc(N)n3nc(Cc4ccccn4)nc23)ccc1=O [Example 27, 3-(5-amino-8-(1-methyl-6-oxo-1,6-dihydropyridazin-3-yl)-2-(pyridin-2-ylmethyl)-[1,2,4]triazolo[1,5-c]pyrimidin-7-yl)benzonitrile] | ≥ 8.00 | ≥ 8.00 |
| N#Cc1cccc(-c2nc(N)n3nc(OCc4ncccc4F)nc3c2-c2ccncn2)c1 [Example 28, 3-(5-amino-2-((3-fluoropyridin-2-yl)methoxy)-8-(pyrimidin-4-yl)-[1,2,4]triazolo[1,5-c]pyrimidin-7-yl)benzonitrile] | ≥ 8.00 | ≥ 8.00 |
| Cn1cc(-c2c(-c3cccc(C#N)c3)nc(N)n3nc(OCc4ncccc4F)nc23)ccc1=O [Example 29, 3-(5-amino-2-((3-fluoropyridin-2-yl)methoxy)-8-(1-methyl-6-oxo-1,6-dihydropyridin-3-yl)-[1,2,4]triazolo[1,5-c]pyrimidin-7-yl)benzonitrile] | ≥ 8.00 | ≥ 8.00 |
| Cn1nc(-c2c(-c3cccc(C#N)c3)nc(N)n3nc(OCc4ncccc4F)nc23)ccc1=O [Example 30, 3-(5-amino-2-((3-fluoropyridin-2-yl)methoxy)-8-(1-methyl-6-oxo-1,6-dihydropyridazin-3-yl)-[1,2,4]triazolo[1,5-c]pyrimidin-7-yl)benzonitrile] | ≥ 8.00 | ≥ 8.00 |
| Cc1cc(-c2c(-c3cccc(C#N)c3)nc(N)n3nc(OCc4ncccc4F)nc23)cc(C)n1 [Example 32, 3-(5-amino-8-(2,6-dimethylpyridin-4-yl)-2-((3-fluoropyridin-2-yl)methoxy)-[1,2,4]triazolo[1,5-c]pyrimidin-7-yl)benzonitrile] | ≥ 8.00 | 7.00 to 8.00 |
| COc1cc(-c2c(-c3cccc(C#N)c3)nc(N)n3nc(OCc4ncccc4F)nc23)cc(C)n1 [Example 33, 3-(5-amino-2-((3-fluoropyridin-2-yl)methoxy)-8-(2-methoxy-6-methylpyridin-4-yl)-[1,2,4]triazolo[1,5-c]pyrimidin-7-yl)benzonitrile] | ≥ 8.00 | ≥ 8.00 |
| N#Cc1cccc(-c2nc(N)n3nc(Nc4ccccn4)nc3c2-c2ccncn2)c1 [Example 34, 3-(5-amino-2-(pyridin-2-ylamino)-8-(pyrimidin-4-yl)-[1,2,4]triazolo[1,5-c]pyrimidin-7-yl)benzonitrile] | ≥ 8.00 | ≥ 8.00 |
| Cc1cccc(Nc2nc3c(-c4ccncn4)c(-c4cccc(C#N)c4)nc(N)n3n2)n1 [Example 40, 3-(5-amino-2-((6-methylpyridin-2-yl)amino)-8-(pyrimidin-4-yl)-[1,2,4]triazolo[1,5-c]pyrimidin-7-yl)benzonitrile] | ≥ 8.00 | ≥ 8.00 |
| N#Cc1cccc(-c2nc(N)n3nc(COc4ccccn4)nc3c2-c2ccncn2)c1 [Example 41, 3-(5-amino-2-((pyridin-2-yloxy)methyl)-8-(pyrimidin-4-yl)-[1,2,4]triazolo[1,5-c]pyrimidin-7-yl)benzonitrile] | ≥ 8.00 | ≥ 8.00 |
| N#Cc1cccc(-c2nc(N)n3nc(COc4ncccc4C#N)nc3c2-c2ccncn2)c1 [Example 42, 2-((5-amino-7-(3-cyanophenyl)-8-(pyrimidin-4-yl)-[1,2,4]triazolo[1,5-c]pyrimidin-2-yl)methoxy)nicotinonitrile] | ≥ 8.00 | ≥ 8.00 |
| Cn1cc(-c2c(-c3cccc(C#N)c3)nc(N)n3nc(COc4ncccc4C#N)nc23)ccc1=O [Example 43, 2-((5-amino-7-(3-cyanophenyl)-8-(1-methyl-6-oxo-1,6-dihydropyridin-3-yl)-[1,2,4]triazolo[1,5-c]pyrimidin-2-yl)methoxy)nicotinonitrile] | ≥ 8.00 | ≥ 8.00 |
| Cn1nc(-c2c(-c3cccc(C#N)c3)nc(N)n3nc(COc4ncccc4C#N)nc23)ccc1=O [Example 44, 2-((5-amino-7-(3-cyanophenyl)-8-(1-methyl-6-oxo-1,6-dihydropyridazin-3-yl)-[1,2,4]triazolo[1,5-c]pyrimidin-2-yl)methoxy)nicotinonitrile] | ≥ 8.00 | 7.00 to 8.00 |
| Cc1cc(-c2c(-c3cccc(C#N)c3)nc(N)n3nc(COc4ncccc4C#N)nc23)cc(C)n1 [Example 46, 2-((5-amino-7-(3-cyanophenyl)-8-(2,6-dimethylpyridin-4-yl)-[1,2,4]triazolo[1,5-c]pyrimidin-2-yl)methoxy)nicotinonitrile] | ≥ 8.00 | 6.00 to 7.00 |
| COc1cc(-c2c(-c3cccc(C#N)c3)nc(N)n3nc(COc4ncccc4C#N)nc23)cc(C)n1 [Example 47, 2-((5-amino-7-(3-cyanophenyl)-8-(2-methoxy-6-methylpyridin-4-yl)-[1,2,4]triazolo[1,5-c]pyrimidin-2-yl)methoxy)nicotinonitrile] | ≥ 8.00 | 7.00 to 8.00 |
| N#Cc1cccc(-c2nc(N)n3nc(Cn4nnc(-c5ccccn5)n4)nc3c2-c2ccncn2)c1 [Example 50, 3-(5-amino-2-((5-(pyridin-2-yl)-2H-tetrazol-2-yl)methyl)-8-(pyrimidin-4-yl)-[1,2,4]triazolo[1,5-c]pyrimidin-7-yl)benzonitrile] | ≥ 8.00 | ≥ 8.00 |
| N#Cc1cccc(-c2nc(N)n3nc(Cn4nnnc4-c4ncccn4)nc3c2-c2ccncn2)c1 [Example 51, 3-(5-amino-2-((5-(pyrimidin-2-yl)-1H-tetrazol-1-yl)methyl)-8-(pyrimidin-4-yl)-[1,2,4]triazolo[1,5-c]pyrimidin-7-yl)benzonitrile] | ≥ 8.00 | ≥ 8.00 |
| N#Cc1cccc(-c2nc(N)n3nc(Cn4nnnc4-c4ccncn4)nc3c2-c2ccncn2)c1 [Example 52, 3-(5-amino-8-(pyrimidin-4-yl)-2-((5-(pyrimidin-4-yl)-1H-tetrazol-1-yl)methyl)-[1,2,4]triazolo[1,5-c]pyrimidin-7-yl)benzonitrile] | ≥ 8.00 | ≥ 8.00 |
| N#Cc1cccc(-c2nc(N)n3nc(Cn4nnnc4-c4cccnc4)nc3c2-c2ccncn2)c1 [Example 53, 3-(5-amino-2-((5-(pyridin-3-yl)-1H-tetrazol-1-yl)methyl)-8-(pyrimidin-4-yl)-[1,2,4]triazolo[1,5-c]pyrimidin-7-yl)benzonitrile] | ≥ 8.00 | ≥ 8.00 |
| N#Cc1cccc(-c2nc(N)n3nc(Cn4nnnc4-c4ccncc4)nc3c2-c2ccncn2)c1 [Example 54, 3-(5-amino-2-((5-(pyridin-4-yl)-1H-tetrazol-1-yl)methyl)-8-(pyrimidin-4-yl)-[1,2,4]triazolo[1,5-c]pyrimidin-7-yl)benzonitrile] | ≥ 8.00 | ≥ 8.00 |
